Laboratory results as given in paper PMC5077990, “P53 activation inhibits all types of hematopoietic progenitors and all stages of megakaryopoiesis” (Oncotarget, 2016).

What was measured:
[1] = test system: BFU-E (Burst Forming Unit-Erythroid) progenitors from CD34+ cells; test: Colony assay in methylcellulose, BFU-E; type: cell-based, human; conditions: CD34+ cells seeded in methylcellulose in the presence of compound; compared to untreated control
Description: (§1) CD34^+cells were obtained from leukapheresis samples after mobilization of donors after informed consent in agreement with our Institute Ethic Committee (Assistance Publique des Hôpitaux de Paris) and in accordance with the Declaration of Helsinki. CD34^+cells were isolated by a positive selection using an immunomagnetic cell sorting system (AutoMacs; Miltenyi Biotec, Bergisch Gladbach, Germany). 500 to 1000 normal CD34^+cells were plated either in 1% methylcellulose assay (StemCells technologies, Vancouver, Canada) to quantify erythroid (BFU-E) and granulo-monocytic (CFU-GM) progenitors or in serum-free fibrin clot assay for quantification of MK progenitors (CFU-MK) in the absence or presence of various concentration of SAR405838 or MI-219. Cultures in methylcellulose were stimulated by addition of human recombinant growth factors: G-CSF (20 ng/mL), IL-3 (10 ng/mL) SCF (25 ng/mL, Biovitrum AB, Stockholm, Sweden), IL-6 (10 ng/mL), FLT3 (10 ng/mL) and human EPO (1 U/mL). Cultures in fibrin clot were stimulated with 10 ng/mL TPO (Kirin Brewery, Tokyo, Japan) and 25 ng/mL SCF. BFU-E and CFU-GM colonies were enumerated at day 14 of culture. CFU-MK colonies were enumerated at day 12 after labeling by an indirect immuno-alkaline phosphatase staining technique using an anti-CD41a monoclonal antibody (MoAb; Becton Dickinson, le Pont de Claix, France; clone HIP8), as previously described.

[2] = test system: CFU-GM (Colony Forming Unit-Granulocyte Macrophage) progenitors from CD34+ cells; test: Colony assay in methylcellulose, CFU-GM; type: cell-based, human; conditions: CD34+ cells seeded in methylcellulose in the presence of compound; compared to untreated control
Description: as §1, with “BFU-E and CFU-GM colonies were enumerated at day 14 of culture.” left out

[3] = test system: CFU-MK (Colony Forming Unit-Megakaryocyte) progenitors from CD34+ cells; test: Colony assay in fibrin clot, CFU-MK; type: cell-based, human; conditions: CD34+ cells seeded in fibrin clot in the presence of compound; compared to untreated control
Description: as §1, with “CFU-MK colonies were enumerated at day 12 after labeling by an indirect immuno-alkaline phosphatase staining technique using an anti-CD41a monoclonal antibody (MoAb; Becton Dickinson, le Pont de Claix, France; clone HIP8), as previously described.” left out

[4] = test system: Day 6 megakaryoblasts (ploidization); test: MK ploidy by flow cytometry (CD41/CD42/vital Hoechst staining); type: cell-based, human; conditions: day 6 megakaryoblasts treated 72 hours, analysed day 9; SAR405838 at 1 μM; untreated control 4.4 N
Description: First, we investigated if MDM2 inhibitors affect MK ploidization. SAR405838 induced a significant reduction in the mean ploidy (3.0 N at the dose of 1 μM versus 4.4 N for untreated control or for MI-219 treatment) (Supplementary Figure S1). page 1: P53 activation inhibits all types of hematopoietic progenitors and all stages of megakaryopoiesis SUPPLEMENTARY FIGURE Supplementary Figure S1: Effect of SAR405838 on polyploidization. Day 6 megakaryoblasts were treated for 72 hours with various doses of MI-219 or SAR405838. At day 9, ploidy was analyzed by flow cytometry using a CD41/CD42/vital Hoechst staining. N represents the mean ploidy. As shown, SAR405838 induced a significant reduction in the mean ploidy (3.0N at the dose of 1μM versus 4.4N for control or for MI-219 treatment). The Figure illustrates a representative experiment in triplicate. Two other experiments in triplicate gave similar results. […]

[5] = parameters: method as in PMID 23084521, PMID 24309210; conditions: clinical and preclinical data in rats and monkeys; cited from earlier work
[6] = test system: p53 pathway in megakaryocytes (MKs); test: p53 pathway proteins and transcripts in MKs (western-blot, qRT-PCR); type: cell-based, human; conditions: day 7-MKs (legend: day 10-MK), 5 μM for 24 or 48 hours
Description: We also explored the effects of p53 stabilization at a later stage of megakaryocytic differentiation. […] Day 7-MKs were treated with 5 μM Nutlin 3a for 24 or 48 hours, which led to an increase in p53, p21, BAX, BCL2 and BCL-XL levels, confirming a functional p53 activity (Figure 6A). […] Similar results were found with day 6-megakaryoblasts treated with two doses of SAR405838 for 72 hours (Figure 6D/6E) without any major effect on the percentage of CD41^+ cells (Figure 6F). […] As shown in Figure 6D/6E, at the dose of 0.5 μM the SAR405838 induced a 50% decreased in the number of viable cells while the apoptotic cells reached 50% of the total cells. We checked if the effect of SAR405838 on MKs could be reverted by the addition of high TPO doses. CD34^+ progenitors were cultured in serum-free medium supplemented with SCF and low dose of TPO (1 ng/mL) for 6 days. Day 6-megakaryoblasts were then treated with 1.5 μM of SAR405838 for 48 hours and various doses of TPO.
In parallel, the expression of P53, BAK, BCL2L1, NOXA, PUMA, BAX, P21 and P53 were quantified by qRT-PCR related to HPRT. C. […] (n=3). […]
PCRs were carried out in the ABI Prism GeneAmp 5700 (Perkin-Elmer) using the Power SYBR-Green PCR Master Mix (ABI) containing the specific primers. The expression levels of all genes were calculated relatively to HPRT or to PPIA housekeeping gene.
Proteins were quantified by Image J software.

CC(C)(C)C[C@H]1N[C@@H](C(=O)NCC[C@H](O)CO)[C@H](c2cccc(Cl)c2)[C@@]12C(=O)Nc1cc(Cl)c(F)cc12.Cl [MI-219]
dose inducing a 50% reduction of BFU-E numbers [1]: significant less potent activity compared to SAR405838
dose inducing a 50% reduction of CFU-GM numbers [2]: significant less potent activity compared to SAR405838
dose inducing a 50% reduction of CFU-MK numbers [3]: significant less potent activity compared to SAR405838
mean ploidy [4]: 4.4 N

COc1ccc(C2=N[C@@H](c3ccc(Cl)cc3)[C@@H](c3ccc(Cl)cc3)N2C(=O)N2CCNC(=O)C2)c(OC(C)C)c1 [Nutlin]
hematological adverse effect [5]: major thrombocytopenia

CCOc1cc(C(C)(C)C)ccc1C1=N[C@@](C)(c2ccc(Cl)cc2)[C@@](C)(c2ccc(Cl)cc2)N1C(=O)N1CCN(CCCS(C)(=O)=O)CC1 [RG7112]
hematological adverse effect [5]: major thrombocytopenia

COc1ccc(C2=N[C@@H](c3ccc(Cl)cc3)[C@@H](c3ccc(Cl)cc3)N2C(=O)N2CCNC(=O)C2)c(OC(C)C)c1 [Nutlin 3a]
p53, p21, BAX, BCL2 and BCL-XL levels (western-blot) [6]: increase
